Kd data for six molecules are collected here from PMC3585409, “Structural Determinants for Activity and Specificity of the Bacterial Toxin LlpA” (PLoS Pathogens, 2013).

Molecules are shown by their SMILES. Where two headings read alike, the source gives them in different places.

Test [1] concerns the target T1, LlpABW (Pseudomonas putida, UniProt Q8GEJ9).
T1 construct: gene llpA; full-length, N-terminal His6 tag (pET28a, pCMPG6056), E. coli BL21(DE3); no signal peptide; N-domain Arg4-Pro135, C-domain Ala136-Gln253, hairpin Pro254-His275
The experiment in a line: ITC. Format: binding.

In test [2] the target is T2, LlpABW (Pseudomonas putida, UniProt Q8GEJ9, V208Y).
T2 construct: gene llpA; full-length, N-terminal His6 tag (pET28a, pCMPG6056), E. coli BL21(DE3); no signal peptide; N-domain Arg4-Pro135, C-domain Ala136-Gln253, hairpin Pro254-His275
The test can be described thus: ITC. It counts as binding.

The mark [3] stands for this setting: bis-TRIS propane 20 mM, 200 mM NaCl, pH 7.0, 25°C, single-site fit n = 1, site III^C.

T1 sequence (Q8GEJ9 1-276): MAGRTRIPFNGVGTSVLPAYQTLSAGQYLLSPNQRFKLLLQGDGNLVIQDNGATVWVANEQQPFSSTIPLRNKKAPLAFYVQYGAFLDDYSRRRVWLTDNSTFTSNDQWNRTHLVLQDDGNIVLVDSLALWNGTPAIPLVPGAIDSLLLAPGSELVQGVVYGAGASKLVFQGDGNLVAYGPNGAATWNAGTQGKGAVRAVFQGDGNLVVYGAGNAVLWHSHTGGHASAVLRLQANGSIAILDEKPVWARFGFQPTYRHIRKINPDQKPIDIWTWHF
T2 sequence (Q8GEJ9 1-276, stated change not applied): as the sequence (Q8GEJ9 1-276) above

On to `OC[C@H]1O[C@H](O[C@@H]2C(O)O[C@H](CO)[C@@H](O)[C@@H]2O)[C@@H](O)[C@@H](O)[C@@H]1O` (some centres unmarked) [Manα(1–2)Man], for which the Kd (commonly the free concentration of one partner at which half of the binding sites on the other are occupied at equilibrium, for simple one-to-one binding) in test [1] (setting [3]) was 42.4 mM. Turning to `CO[C@H]1O[C@H](CO)[C@@H](O)[C@H](O)[C@@H]1O` [methyl-α-D-mannopyranoside], the Kd in test [2] (read-out: Kd) turned out to be 58.8 mM; in test [1] (read-out: Kd), 45.9 mM. Regarding `OC[C@H]1O[C@H](OC[C@H]2OC(O)[C@@H](O)[C@@H](O[C@H]3O[C@H](CO)[C@@H](O)[C@H](O)[C@@H]3O)[C@@H]2O)[C@@H](O)[C@@H](O)[C@@H]1O` (some centres unmarked) [Manα(1–3)[Manα(1–6)]Man], the Kd in test [1] (setting [3]) is 10.1 mM. In test [1] (setting [3]), `CC(=O)N[C@H]1[C@H](O[C@@H]2[C@@H](OC[C@H]3OC(O)[C@@H](O)[C@@H](O[C@H]4O[C@H](CO)[C@@H](O)[C@H](O)[C@@H]4O[C@@H]4O[C@H](CO)[C@@H](O)[C@H](O)[C@H]4NC(C)=O)[C@@H]3O)O[C@H](CO)[C@@H](O)[C@@H]2O)O[C@H](CO)[C@@H](O)[C@@H]1O` (some centres unmarked) [GlcNAcβ(1–2)Manα(1–3)[GlcNAcβ(1–2)Manα(1–6)]Man] displayed a Kd of 2.1 mM. Regarding `OC[C@H]1O[C@H](O[C@H]2[C@H](O)[C@@H](CO)OC(O)[C@H]2O)[C@@H](O)[C@@H](O)[C@@H]1O` (some centres unmarked) [Manα(1–3)Man], the Kd came out at 23 mM in test [2] (setting [3]) and 18.2 mM in test [1] (setting [3]). In test [1] (setting [3]), `OC[C@H]1O[C@H](OC[C@H]2OC(O)[C@@H](O)[C@@H](O)[C@@H]2O)[C@@H](O)[C@@H](O)[C@@H]1O` (some centres unmarked) [Manα(1–6)Man] showed a Kd of 17.2 mM.
